The record followed here is publication PMC9161374 (Science Translational Medicine, 2022).

Several values for one entry are separate records, joined by “and”; a condition that tells them apart may be missing. Equal values may be shown once. Read-outs that look alike come from different tables or passages of the source. Bounds are passed on as bounds.

The subject of data set [1] is SARS-CoV-2 (Omicron, B.1.1.529).
Data set [2] concerns SARS-CoV-2 Delta variant. Type of data set: in vivo, K18-hACE2 mice. Conditions: for % Initial weight / nucleocapsid gRNA copies/ μL / Log10 (FFU/g): individual animals; for % Initial weight: Fig.6B; for nucleocapsid gRNA copies/ μL: Fig.6C; for Log10 (FFU/g): Fig.6D.
Data set [3] has as its system SARS-CoV-2 (Delta, B.1.617.2). Kind of data set: microbe, parasite or virus in culture. The class given is cell-based.
The test system of data set [4] is SARS-CoV-2 Delta variant. Type of data set: in vivo, K18-hACE2 mice. Conditions: for lung virus titers in plaque assays: ATV006 250 or 100 mg/kg, EIDD-2801 500 mg/kg.

With `CC(C)C(=O)OC[C@H]1O[C@@](C#N)(c2ccc3c(N)ncnn23)[C@H](O)[C@@H]1O` [ATV006], the fold potency improvement is on record as above 12 fold in data set [1] and above 4 fold in data set [3]. Further, in data set [1], the “therapeutic index (CC50/EC50)” value is recorded as 1207.55. In addition, the “% Initial weight” value was 100% in the data set on SARS-CoV-2 Delta variant [2] (10mg/kg, 0d); 101.648% and 100.759% and 96.0784% and 96.7539% and 101.529% in the data set with SARS-CoV-2 Delta variant [2] (10mg/kg, 1d); 101.923% and 99.2405% and 97.0588% and 94.7644% and 103.824% in the data set on SARS-CoV-2 Delta variant [2] (10mg/kg, 2d); 98.9011% and 98.7342% and 96.5686% and 95.0262% and 104.706% in the data set on SARS-CoV-2 Delta variant [2] (10mg/kg, 3d); 100% with SARS-CoV-2 Delta variant [2] (30mg/kg, 0d); 102.538% and 104.147% and 99.7354% and 98.4143% and 100.606% in the data set on SARS-CoV-2 Delta variant [2] (30mg/kg, 1d). The “% Initial weight” value in the data set with SARS-CoV-2 Delta variant [2] (30mg/kg, 2d) was 101.015% and 104.987% and 97.619% and 97.6982% and 97.3539%; in the data set on SARS-CoV-2 Delta variant [2] (30mg/kg, 3d) it was 101.777% and 105.249% and 100% and 99.7442% and 101.433%; with SARS-CoV-2 Delta variant [2] (80mg/kg, 0d) it was 100%; in the data set with SARS-CoV-2 Delta variant [2] (80mg/kg, 1d), 98.0198% and 99.4949% and 101.272% and 98.5163% and 99.5238%; in the data set on SARS-CoV-2 Delta variant [2] (80mg/kg, 2d), 101.98% and 95.9596% and 100% and 98.635% and 104.762%; in the data set with SARS-CoV-2 Delta variant [2] (80mg/kg, 3d), 103.96% and 97.3232% and 99.6438% and 102.077% and 105.357%. Besides, the “% Initial weight” value in the data set with SARS-CoV-2 Delta variant [2] (150mg/kg, 0d) is 100%; in the data set with SARS-CoV-2 Delta variant [2] (150mg/kg, 1d), 98.25% and 98.7147% and 97.1922% and 101.765% and 97.8241%; with SARS-CoV-2 Delta variant [2] (150mg/kg, 2d), 98.35% and 100% and 98.2721% and 105.229% and 95.8333%; in the data set on SARS-CoV-2 Delta variant [2] (150mg/kg, 3d), 97.75% and 97.4293% and 97.1922% and 107.516% and 97.4537%. Also, the “nucleocapsid gRNA copies/ μL” value with SARS-CoV-2 Delta variant [2] (10mg/kg) is 146414 copies/ μL and 275440 copies/ μL and 232362 copies/ μL and 312910 copies/ μL and 80285.6 copies/ μL; in the data set on SARS-CoV-2 Delta variant [2] (30mg/kg), 13248.7 copies/ μL and 53687.7 copies/ μL and 90173.6 copies/ μL and 4602.2 copies/ μL and 1089.53 copies/ μL; with SARS-CoV-2 Delta variant [2] (80mg/kg) it was 1775.52 copies/ μL and 4114.3 copies/ μL and 2639.93 copies/ μL and 10494.5 copies/ μL and 13845.3 copies/ μL; in the data set with SARS-CoV-2 Delta variant [2] (150mg/kg) it was 3137.57 copies/ μL and 1055.82 copies/ μL and 1750.74 copies/ μL and 2116.43 copies/ μL and 8855.34 copies/ μL. The “Log10 (FFU/g)” value in the data set with SARS-CoV-2 Delta variant [2] (30mg/kg) is 285 FFU/g and 11142.9 FFU/g and 1428.57 FFU/g; in the data set on SARS-CoV-2 Delta variant [2] (80mg/kg), 285 FFU/g; in the data set on SARS-CoV-2 Delta variant [2] (150mg/kg), 285 FFU/g. The “Viral titer in lungs” value in the data set on SARS-CoV-2 Delta variant [2] (mouse, in vivo) is listed as “reduced below the detection limit”. In the data set on SARS-CoV-2 Delta variant [2] (mouse, in vivo), the lung histopathology result was “alleviated the symptoms in the lungs”. The “viral load in the lungs” value in the data set with SARS-CoV-2 Delta variant [2] (mouse, in vivo) was “reduced viral load in the lungs”. In addition, the “lung virus titers in plaque assays” value in the data set with SARS-CoV-2 Delta variant [4] ([…]) is listed as “below the limit of detection”. Moreover, in the data set on SARS-CoV-2 Delta variant [4] (mouse, in vivo), the “Ccl2 transcript, Vehicle/ATV006 fold change + standard error of the mean” value came out at 24.69±25.14. Besides, the “Cxcl10 transcript, Vehicle/ATV006 fold change + standard error of the mean” value with SARS-CoV-2 Delta variant [4] (mouse, in vivo) came to 43.19±20.74. Also, the “Ifnb transcript, Vehicle/ATV006 fold change + standard error of the mean” value with SARS-CoV-2 Delta variant [4] (mouse, in vivo) was found to be 5.85±4.59. Moreover, the “Ifng transcript, Vehicle/ATV006 fold change + standard error of the mean” value in the data set with SARS-CoV-2 Delta variant [4] (mouse, in vivo) was 25.56±17.77. In the data set with SARS-CoV-2 Delta variant [4] (mouse, in vivo), the “Il1β transcript, Vehicle/ATV006 fold change + standard error of the mean” value is reported as 0.66±0.01. Also, in the data set on SARS-CoV-2 Delta variant [4] (mouse, in vivo), the “Il6 transcript, Vehicle/ATV006 fold change + standard error of the mean” value is given as 3.14±2.37. Moreover, in the data set on SARS-CoV-2 Delta variant [4] (mouse, in vivo), the “lung pathology (histopathology)” value is “reduced evidence of lung pathology”. Also, the “lung viral RNA compared to the control” value in the data set on SARS-CoV-2 Delta variant [4] (mouse, in vivo) was “significantly reducing viral RNA”. Also, the “spike (S) protein of SARS-CoV-2 in lungs, immunohistochemistry” value in the data set on SARS-CoV-2 Delta variant [4] (mouse, in vivo) is “hardly detectable”. The survival result in the data set with SARS-CoV-2 Delta variant [4] (prophylactic dosing, orally once daily, […]) was “prevent the death”.
As to `CC(C)C(=O)OC[C@H]1O[C@@H](n2ccc(NO)nc2=O)[C@H](O)[C@@H]1O` [EIDD-2801, molnupiravir, reference compound], the “lung virus titers in plaque assays” value in the data set with SARS-CoV-2 Delta variant [4] ([…]) is “below the limit of detection”.
Turning to `N#C[C@@]1(c2ccc3c(N)ncnn23)O[C@H](CO)[C@@H](O)[C@H]1O` [GS-441524, reference compound], in the data set with SARS-CoV-2 Delta variant [2] (80mg/kg), the “nucleocapsid gRNA copies/ μL” value is 3072139 copies/ μL and 3630875 copies/ μL and 3484205 copies/ μL and 3410466 copies/ μL and 4171196 copies/ μL; the “Log10 (FFU/g)” value was 488571 FFU/g and 702857 FFU/g and 351429 FFU/g and 720000 FFU/g and 531429 FFU/g. In the data set with SARS-CoV-2 Delta variant [2] (150mg/kg), the “nucleocapsid gRNA copies/ μL” value was 3129847 copies/ μL and 270812 copies/ μL and 4369083 copies/ μL and 2646326 copies/ μL and 9650757 copies/ μL; the “Log10 (FFU/g)” value was 342857 FFU/g and 368571 FFU/g and 531429 FFU/g and 360000 FFU/g and 420000 FFU/g. In the data set with SARS-CoV-2 Delta variant [2] (mouse, in vivo), the “Viral titer in lungs” value is “did not inhibit virus replication”; the lung histopathology result was “multiple sites of injury and inflammatory cell infiltration”.
